# Source: ChEMBL document CHEMBL1140575, “Xanthones from Cudrania tricuspidata displaying potent alpha-glucosidase inhibition” (Bioorg Med Chem Lett, 2007)
# Assay: Inhibition of bakers yeast alpha-glucosidase by spectrophotometry
# Parameters: species or system Saccharomyces cerevisiae
row,IC50 [µM],SMILES
1,37.7,C=CC(C)(C)c1c(O)cc(O)c2c(=O)c3c(CC=C(C)C)c(O)c(O)cc3oc12 [CUDRATRICUSXANTHONE A]
2,> 100,CC(C)=CCc1c(O)c(O)cc2c(=O)c3c(O)c4c(cc3oc12)OC(C)C4(C)C (stereo not drawn) [CUDRAXANTHONE M]
3,52.9,C=CC(C)(C)c1c(O)cc2oc3c(CC=C(C)C)c(O)c(O)cc3c(=O)c2c1O [CUDRAXANTHONE L]
4,38.2,C=CC(C)(C)c1c(O)c(CC=C(C)C)c2oc3cc(O)c(O)cc3c(=O)c2c1O [MACLURAXANTHONE B]
5,16.2,C=CC(C)(C)c1c(OC)cc(O)c2c(=O)c3c(CC=C(C)C)c(O)c(O)cc3oc12 [CUDRAXANTHONE D]

# More lines, now with the values behind:
row,SMILES,IC50 [µM]
1,C=CC(C)(C)c1c(O)cc(O)c2c(=O)c3cc(O)c4c(c3oc12)C=CC(C)(C)O4,24.9
2,C=CC(C)(C)c1c(O)cc2oc3cc(O)c(O)c(CC=C(C)C)c3c(=O)c2c1O,35.8
3,CC(C)=CCc1c2c(c(O)c3c(=O)c4cc(O)c(O)cc4oc13)C(C)(C)C(C)O2 (stereo not drawn),32
